Reference: patent US20030235646A1, “Method for improving quality of meat by supplementing pig diets and concentrates used therefor” (Lonza Inc., priority 2002, published 2003)

Tests used:
finishing pigs = experiment: Carcass characteristics of finishing pigs fed Carnitine and Paylean (Example 2); format: in vivo; conditions: Paylean 9 g/ton, Carnitine 0 ppm
Protocol: Because of the dramatic and potentially economically important changes in pork quality observed in the data of Example 1, a second trial was conducted to confirm these observations. This experiment was conducted in the same facility as Example 1 and used the same diet in Table 1. The primary difference was that the 4.5 g/ton ractopamine level was not included; i.e., only 0 or 9 grams/ton ractopamine was combined with either 0, 25, or 50 ppm of added L-camitine.

[1] = system: finishing pigs (longissimus muscle); experiment: Carcass quality measures of finishing pigs fed Carnitine and Paylean (Example 1); format: in vivo; design: key to L*: lightness: 100 = perfect white, 0 = absolute black; key to Firmness: score 1 = soft and watery, 5 = firm and dry; Hue angle / Drip loss: unit not given here; conditions: for Drip loss / Hue angle / L* / PH 45 m postmortem / PH 24 h postmortem / Saturation index / a* / a*/b* / b* / Temperature / Firmness / Marbling / Visual color: Carnitine 0 ppm; for Temperature: 45 minutes postmortem; for Firmness / Marbling / Visual color: score 1 to 5
Text: Color is qualitatively measured using Minolta color-spectrometry, a process which evaluates the Hunter L* and a* values of the meat color, as well as by the saturation index and the Hue Angle value. Hunter L* value measures the lightness of the meat color and varies from 100 for perfect white to 0 for absolute black. Acceptable values for pork range from 35 to 55, with 40-45 values being most preferred by consumers.
The other Hunter value is related to the hue of the color of the meat, with increasing a* values indicating redness and decreasing a values indicating greenness. High quality pork has Hunter a* values which range from 7.5 to 12, and consumers prefer meat with 9-9.5 scores.
Hue Angle value measures the discoloration of meat. Increasing values indicate increasing discoloration of meat. Decreasing values indicate reduction of the discoloration. Acceptable pork Hue Angle values range from 48 to 54, and the preferred values range from 48-52.
The final spectrographic measurement is the saturation index, which is related to the strength of the color of the meat. Acceptable pork saturation index values range from 12 to 15.5, with values from 13-14.5 being preferred. The color of the meat is of particular importance in some export markets, such as Japan, Korea, Asia and South America. […] Acceptable marbling score ranges from 1 to 3, with 2.5 being preferred.
Drip loss is a measurement of the ability of the sample to retain water. In this procedure, a standardized amount of lean pork muscle, i.e., a cubic centimeter, is weighed, then suspended in an airtight container from a hook for 24 hours. The difference in weight from beginning to end of the 24 hour period represents the amount of water loss or purge. The greater the amount of purge loss, the poorer the pork quality. Changes in the pH of pork associated with postmortem metabolism affect the isoelectric point of the various amino acids in protein, and thus can affect the protein's ability to bind water. Pork with high drip loss is termed in the industry as “exudative” which is undesirable to both meat producers and consumers.
The firmness of the meat is measured visually on the score from 1 to 5, 1 being soft and watery, 5 being firm and dry. The acceptable score is 2-4, and the preferred score is 2.5-3.5. This characteristic of pork has become important due to recent attempts to genetically improve the leanness of the meat. The desired leanness has been accompanied by a negative impact on the meat firmness. As a result, approximately 30% of the meat now going through packing houses has been categorized as PSE (Pale Soft Exudative meat) and is unacceptable to the consumer, thus causing economic loss to the meat producer according to the National Meat Producers Council. Thus, there is an urgent need in the art for means of improving the quality (firmness, color, marbling) and carcass characteristics of the pork.
One hundred twenty-six gilts (initially 73.6 lb, PIC C22×L326) were allotted by weight and ancestry in a randomized complete block design to each of the nine experimental treatments arranged in a 3×3 factorial arrangement. There were two pigs/pen and seven replicates/treatment. Pigs were housed in an environmentally controlled building with 4-ft×4-ft slatted-floor pens.
Pigs were fed a corn-soybean meal diet composed of the following:
L-carnitine (0, 25, or 50 ppm) was added to the diet from 73.6 lb until slaughter (approximately 240 lb). Paylean (a registered trademark of Eli Lilly Company for ractopamine) treatments (0, 4.5, or 9 g/ton) were fed for the last four weeks of the experiment. The basal diet was formulated to contain 1.10% lysine from 73.6 to 164 lb, and 1.00% lysine from 164 lb until the end of the experiment. These quantities of Paylean are equivalent to 0, 5, and 10 ppm of ractopamine in the feed, respectively. […]

SMILES: CC(CCc1ccc(O)cc1)NCC(O)c1ccc(O)cc1 (stereo not drawn) [Paylean, ractopamine, reference compound]
- Drip loss (finishing pigs): 4.85%
- Hue angle (finishing pigs): 65.14
- L* (finishing pigs): 59.72
- Saturation index (finishing pigs): 18.74
- Temperature 5 min (finishing pigs): 39.60 °C
- Temperature 15 min (finishing pigs): 40.42 °C
- Temperature 45 min (finishing pigs): 39.43 °C
- Temperature 1.5 h (finishing pigs): 35.99 °C
- Temperature 3 h (finishing pigs): 24.38 °C
- Temperature 6 h (finishing pigs): 12.04 °C
- a* (finishing pigs): 7.94
- a*/b* (finishing pigs): 0.46
- b* (finishing pigs): 16.97
- pH 0 min (finishing pigs): 7.16
- pH 5 min (finishing pigs): 6.79
- pH 15 min (finishing pigs): 6.59
- pH 45 min (finishing pigs): 6.14
- pH 1.5 h (finishing pigs): 5.89
- pH 3 h (finishing pigs): 5.59
- pH 6 h (finishing pigs): 5.61
- pH 24 h (finishing pigs): 5.58
- Firmness (finishing pigs; score 1 to 5): 1.99
- Marbling (finishing pigs; score 1 to 5): 1.85
- Visual cobra (finishing pigs; score 1 to 5): 2.75
- Drip loss ([1]; Paylean 4.5 g/ton): 3.13
- Hue angle ([1]; Paylean 4.5 g/ton): 69.95
- L* ([1]; Paylean 4.5 g/ton): 60.78
- PH 45 m postmortem ([1]; Paylean 4.5 g/ton): 6.41
- PH 24 h postmortem ([1]; Paylean 4.5 g/ton): 5.79
- Saturation index ([1]; Paylean 4.5 g/ton): 16.76
- a* ([1]; Paylean 4.5 g/ton): 5.78
- a*/b* ([1]; Paylean 4.5 g/ton): 0.37
- b* ([1]; Paylean 4.5 g/ton): 15.69
- Temperature ([1]; Paylean 4.5 g/ton): 34.39 °C
- Firmness ([1]; Paylean 4.5 g/ton): 1.79
- Marbling ([1]; Paylean 4.5 g/ton): 1.35
- Visual color ([1]; Paylean 4.5 g/ton): 2.57
- Drip loss ([1]; Paylean 9 g/ton): 3.68
- Hue angle ([1]; Paylean 9 g/ton): 68.65
- L* ([1]; Paylean 9 g/ton): 61.53
- PH 45 m postmortem ([1]; Paylean 9 g/ton): 6.33
- PH 24 h postmortem ([1]; Paylean 9 g/ton): 5.71
- Saturation index ([1]; Paylean 9 g/ton): 17.12
- a* ([1]; Paylean 9 g/ton): 6.30
- a*/b* ([1]; Paylean 9 g/ton): 0.39
- b* ([1]; Paylean 9 g/ton): 15.90
- Temperature ([1]; Paylean 9 g/ton): 35.72 °C
- Firmness ([1]; Paylean 9 g/ton): 1.79
- Marbling ([1]; Paylean 9 g/ton): 1.64
- Visual color ([1]; Paylean 9 g/ton): 2.57
- Twenty-four hour pH ([1]; with increasing levels of Paylean, quadratic, P<0.06, highest at 4.5 g/ton): increased and then decreased
